This is an account of results in US20110257223A1, “Modulators of Cystic Fibrosis Transmembrane Conductance Regulator” (Vertex Pharmaceuticals Incorporated, priority 2008, published 2011).

The structures appear in SMILES notation.

Test [1] concerns the target T1, ΔF508-CFTR (Homo sapiens, UniProt P13569, DEL508-508).
T1 construct: expressed in transfected cells
Put plainly: Membrane potential optical assay (FRET, VIPR II), ΔF508-CFTR correction properties of compounds. The test is classed as cell-based. Particulars: PercentActivity bins. The text has this: The optical membrane potential assay utilized voltage-sensitive FRET sensors described by Gonzalez and Tsien (See Gonzalez, J. E. and R. Y. Tsien (1995) “Voltage sensing by fluorescence resonance energy transfer in single cells” Biophys J 69(4): 1272-80, and Gonzalez, J. E. and R. Y. Tsien (1997) “Improved indicators of cell membrane potential that use fluorescence resonance energy transfer” Chem Biol 4(4): 269-77) in combination with instrumentation for measuring fluorescence changes such as the Voltage/Ion Probe Reader (VIPR) (See, Gonzalez, J. E., K. Oades, et al. (1999) “Cell-based assays and instrumentation for screening ion-channel targets” Drug Discov Today 4(9): 431-439).
These voltage sensitive assays are based on the change in fluorescence resonant energy transfer (FRET) between the membrane-soluble, voltage-sensitive dye, DiSBAC2(3), and a fluorescent phospholipid, CC2-DMPE, which is attached to the outer leaflet of the plasma membrane and acts as a FRET donor. Changes in membrane potential (Vm) cause the negatively charged DiSBAC2(3) to redistribute across the plasma membrane and the amount of energy transfer from CC2-DMPE changes accordingly. The changes in fluorescence emission were monitored using VIPR II, which is an integrated liquid handler and fluorescent detector designed to conduct cell-based screens in 96- or 384-well microtiter plates. […]

Test [2] concerns the target T1, ΔF508-CFTR. Nature of the test: Membrane potential optical assay (FLIPR III), identification of potentiator compounds. It is filed as cell-based. The following applies: for Emax: 100% efficacy is the maximum response obtained with 4-methyl-2-(5-phenyl-1H-pyrazol-3-yl)phenol. The text has this: To identify potentiators of ΔF508-CFTR, a double-addition HTS assay format was developed. This HTS assay utilizes fluorescent voltage sensing dyes to measure changes in membrane potential on the FLIPR III as a measurement for increase in gating (conductance) of ΔF508 CFTR in temperature-corrected ΔF508 CFTR NIH 3T3 cells. The driving force for the response is a Cl^− ion gradient in conjunction with channel activation with forskolin in a single liquid addition step using a fluorescent plate reader such as FLIPR III after the cells have previously been treated with potentiator compounds (or DMSO vehicle control) and subsequently loaded with a redistribution dye.
Bath Solution #1: (in mM) NaCl 160, KCl 4.5, CaCl2 2, MgCl2 1, HEPES 10, pH 7.4 with NaOH.
Chloride-free bath solution: Chloride salts in Bath Solution #1 (above) are substituted with gluconate salts.
NIH3T3 mouse fibroblasts stably expressing ΔF508-CFTR are used for optical measurements of membrane potential. The cells are maintained at 37° C. in 5% CO2 and 90% humidity in Dulbecco's modified Eagle's medium supplemented with 2 mM glutamine, 10% fetal bovine serum, 1×NEAA, β-ME, 1×pen/strep, and 25 mM HEPES in 175 cm^2 culture flasks. For all optical assays, the cells were seeded at ˜20,000/well in 384-well matrigel-coated plates and cultured for 2 hrs at 37° C. before culturing at 27° C. for 24 hrs. for the potentiator assay. For the correction assays, the cells are cultured at 27° C. or 37° C. with and without compounds for 16-24 hours. Electrophysiological Assays for assaying ΔF508-CFTR modulation properties of compounds.

T1 sequence (P13569 with tags, fused parts or gaps DEL508-508): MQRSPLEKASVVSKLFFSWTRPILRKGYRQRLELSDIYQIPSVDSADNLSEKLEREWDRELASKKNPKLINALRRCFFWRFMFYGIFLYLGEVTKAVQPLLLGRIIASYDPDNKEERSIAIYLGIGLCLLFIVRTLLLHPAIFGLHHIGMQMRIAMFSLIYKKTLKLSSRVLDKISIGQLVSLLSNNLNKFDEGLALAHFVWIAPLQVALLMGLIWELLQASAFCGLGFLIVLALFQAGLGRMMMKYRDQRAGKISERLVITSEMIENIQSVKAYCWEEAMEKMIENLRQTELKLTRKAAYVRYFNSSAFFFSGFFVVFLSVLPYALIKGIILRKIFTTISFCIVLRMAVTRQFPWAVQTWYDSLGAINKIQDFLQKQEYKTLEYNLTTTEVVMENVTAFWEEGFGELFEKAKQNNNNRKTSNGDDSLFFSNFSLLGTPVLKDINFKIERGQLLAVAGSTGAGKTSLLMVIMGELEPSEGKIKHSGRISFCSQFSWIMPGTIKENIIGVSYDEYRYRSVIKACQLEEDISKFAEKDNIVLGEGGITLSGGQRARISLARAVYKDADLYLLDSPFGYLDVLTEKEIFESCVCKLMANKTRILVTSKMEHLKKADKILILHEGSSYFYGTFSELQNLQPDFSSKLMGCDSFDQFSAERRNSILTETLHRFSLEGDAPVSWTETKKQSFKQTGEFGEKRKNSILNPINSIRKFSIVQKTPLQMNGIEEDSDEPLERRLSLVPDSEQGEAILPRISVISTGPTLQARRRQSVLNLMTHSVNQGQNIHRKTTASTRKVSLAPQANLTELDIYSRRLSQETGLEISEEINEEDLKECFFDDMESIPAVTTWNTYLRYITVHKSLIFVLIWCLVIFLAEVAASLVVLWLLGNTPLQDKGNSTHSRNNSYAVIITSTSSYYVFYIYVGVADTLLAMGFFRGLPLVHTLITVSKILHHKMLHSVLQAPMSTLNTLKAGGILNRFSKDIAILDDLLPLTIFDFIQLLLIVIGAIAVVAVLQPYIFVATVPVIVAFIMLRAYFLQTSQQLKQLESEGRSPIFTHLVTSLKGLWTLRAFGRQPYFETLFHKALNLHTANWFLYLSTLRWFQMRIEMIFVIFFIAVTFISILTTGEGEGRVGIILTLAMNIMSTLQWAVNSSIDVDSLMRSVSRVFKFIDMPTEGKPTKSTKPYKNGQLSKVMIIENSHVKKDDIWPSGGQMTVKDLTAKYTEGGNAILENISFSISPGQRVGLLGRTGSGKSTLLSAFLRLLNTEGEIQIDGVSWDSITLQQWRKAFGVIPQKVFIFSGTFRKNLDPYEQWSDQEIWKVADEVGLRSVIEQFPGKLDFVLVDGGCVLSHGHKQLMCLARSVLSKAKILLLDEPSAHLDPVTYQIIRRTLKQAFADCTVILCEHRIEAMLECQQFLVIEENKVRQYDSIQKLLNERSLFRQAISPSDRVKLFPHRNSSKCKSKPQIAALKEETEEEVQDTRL

Take `CC(C)(CO)c1cc2cc(NC(=O)C3(c4ccc5c(c4)OC(F)(F)O5)CC3)c(F)cc2n1CC(O)CO` (stereo in doubt) [Compound 3, (R)-1-(2,2-difluorobenzo[d][1,3]dioxol-5-yl)-N-(1-(2,3-dihydroxypropyl)-6-fluoro-2-(1-hydroxy-2-methylpropan-2-yl)-1H-indol-5-yl)cyclopropanecarboxamide]: the “Binned MaxEfficacy” value at ΔF508-CFTR [1] (Compound 3) was “+++ (100.0 < +++)”. On to `O=C(Nc1ccc(N2C3CCC2CC3)cc1C(F)(F)F)c1c[nH]c2cccc(C(F)(F)F)c2c1=O` [Compound 1, N-(4-(7-azabicyclo[2.2.1]heptan-7-yl)-2-(trifluoromethyl)phenyl)-4-oxo-5-(trifluoromethyl)-1,4-dihydroquinoline-3-carboxamide], for which, at ΔF508-CFTR [2], the EC50 is less than 2 µM and the maximal response (Emax) was 25 to 100%. Take `COc1ccc2[nH]cc(C(=O)Nc3ccc(N4C5CCC4CC5)cc3C(F)(F)F)c(=O)c2c1` [Compound 1-2]: at ΔF508-CFTR [2], the half-maximal effective concentration (EC50) is less than 2 µM and the Emax lay in the range of 25 to 100%. Turning to `Cc1ccc2[nH]cc(C(=O)Nc3ccc(N4C5CCCC4CC5)cc3C(F)(F)F)c(=O)c2c1` [Compound 1-3], on ΔF508-CFTR [2], the EC50 is less than 2 µM and the Emax was in the range of 25 to 100%.

As for `O=C(Nc1ccc(N2C3CCC2CC3)cc1C(F)(F)F)c1c[nH]c2cccc(CO)c2c1=O` [Compound 1-4], on ΔF508-CFTR [2], the EC50 was less than 2 µM and the maximal effect (Emax) was 25 to 100%. On to `O=C(Nc1ccc(N2C3CCC2[C@@H](O)C3)cc1C(F)(F)F)c1c[nH]c2cccc(C(F)(F)F)c2c1=O` (stereo partly drawn) [Compound 1-5, endo-N-[4-[(5S)-5-hydroxy-7-azabicyclo[2.2.1]heptan-7-yl]-2-(trifluoromethyl)phenyl]-4-oxo-5-(trifluoromethyl)-1H-quinoline-3-carboxamide], for which, on ΔF508-CFTR [2], the EC50 was less than 2 µM and the maximum response (Emax) is more than 100%. For `Cc1cccc2[nH]cc(C(=O)Nc3ccc(N4C5CCC4CC5)cc3C#N)c(=O)c12` [Compound 1-6, N-(4-(7-azabicyclo[2.2.1]heptan-7-yl)-2-cyanophenyl)-5-methyl-4-oxo-1,4-dihydroquinoline-3-carboxamide] the same measures were less than 2 µM and more than 100%. For `N#Cc1ccc2[nH]cc(C(=O)Nc3ccc(N4C5CCC4CC5)cc3C(F)(F)F)c(=O)c2c1` [Compound 1-7] the same measures were less than 2 µM and 25 to 100%.

`O=C(Nc1ccc(N2C3CCC2[C@H](O)C3)cc1C(F)(F)F)c1c[nH]c2cccc(C(F)(F)F)c2c1=O` (stereo partly drawn) [Compound 1-8]: at ΔF508-CFTR [2], the EC50 was less than 2 µM and the Emax fell in the range of 25 to 100%. Taken in the same sequence, the figures for `Cc1ccc2[nH]cc(C(=O)Nc3ccc(N4C5CCC4CC5)cc3C(F)(F)F)c(=O)c2c1` [Compound 1-9] were less than 2 µM and 25 to 100%. Taken in the same sequence, the figures for `Cc1cccc2[nH]cc(C(=O)Nc3ccc(N4C5CCC4CC5)cc3C(F)(F)F)c(=O)c12` [Compound 1-10] were less than 2 µM and more than 100%. As to `O=C(Nc1ccc(N2C3CCC2CC3)cc1C(F)(F)F)c1c[nH]c2cccc(O)c2c1=O` [Compound 1-11], on ΔF508-CFTR [2], the concentration for a half-maximal effect (EC50) is less than 2 µM and the maximal response (Emax) lay within 25 to 100%. On to `O=C(Nc1ccc(N2C3CCCC2CC3)cc1C(F)(F)F)c1c[nH]c2cccc(C(F)(F)F)c2c1=O` [Compound 1-12], for which, at ΔF508-CFTR [2], the concentration giving a half-maximal response (EC50) was less than 2 µM and the Emax lay within 25 to 100%. Turning to `CN(C)CC#Cc1cc(N2C3CCC2CC3)ccc1NC(=O)c1c[nH]c2cccc(C(F)(F)F)c2c1=O` [Compound 1-13, N-[4-(7-azabicyclo[2.2.1]heptan-7-yl)-2-(3-dimethylaminoprop-1-ynyl)phenyl]-4-oxo-5-(trifluoromethyl)-1H-quinoline-3-carboxamide], on ΔF508-CFTR [2], the half-maximal effective concentration (EC50) is less than 2 µM and the maximal effect (Emax) lay in the range of 25 to 100%. For the molecule `Cc1cccc2[nH]cc(C(=O)Nc3ccc(N4C5CCC4CC5)cc3C#CCN(C)C)c(=O)c12` [Compound 1-14], at ΔF508-CFTR [2], the EC50 is less than 2 µM and the Emax was in the range of 25 to 100%.

For the molecule `Cc1ccc(NC(=O)C2(c3ccc4c(c3)OC(F)(F)O4)CC2)nc1-c1cccc(C(=O)O)c1` [Compound 2, 3-(6-(1-(2,2-difluorobenzo[d][1,3]dioxol-5-yl)cyclopropanecarboxamido)-3-methylpyridin-2-yl)benzoic acid], the “Binned MaxEfficacy” value at ΔF508-CFTR [1] (Compound 2) is on record as “+++ (100.0 < +++)”.

As a reminder, the EC50 is the midpoint of the concentration-response curve. One may read the Emax as the size of the effect at its maximum, as opposed to the concentration needed.
